{"source": "ChEMBL document CHEMBL5465560", "about": "“Selectivity Literature for EUbOPEN Chemogenomic Library” (2024)", "key": {"[1]": {"target": "T1, Aurora kinase A (Homo sapiens) (UniProt O14965)", "T1 sequence (whole entry)": "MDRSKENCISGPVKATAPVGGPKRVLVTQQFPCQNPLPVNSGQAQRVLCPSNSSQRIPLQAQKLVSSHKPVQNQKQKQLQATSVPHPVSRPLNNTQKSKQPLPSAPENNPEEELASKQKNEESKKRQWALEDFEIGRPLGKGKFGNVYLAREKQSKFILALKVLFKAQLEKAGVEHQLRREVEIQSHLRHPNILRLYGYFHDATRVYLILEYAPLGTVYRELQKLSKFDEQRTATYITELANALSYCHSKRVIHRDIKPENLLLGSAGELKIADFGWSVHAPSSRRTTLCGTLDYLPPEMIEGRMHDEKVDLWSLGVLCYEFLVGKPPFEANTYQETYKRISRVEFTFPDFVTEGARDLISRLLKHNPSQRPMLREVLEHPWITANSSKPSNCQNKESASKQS", "assay": "Selectivity interaction (ActivX KiNativ screen (kinase selectivity in THP-1 cell lysates)) EUB0000639a STK6", "assay_type": "subcellular", "conditions": "lysate"}, "[2]": {"test_system": "T2, Receptor-type tyrosine-protein kinase FLT3 (Homo sapiens), P36888 [D835H]", "T2 sequence (whole entry)": "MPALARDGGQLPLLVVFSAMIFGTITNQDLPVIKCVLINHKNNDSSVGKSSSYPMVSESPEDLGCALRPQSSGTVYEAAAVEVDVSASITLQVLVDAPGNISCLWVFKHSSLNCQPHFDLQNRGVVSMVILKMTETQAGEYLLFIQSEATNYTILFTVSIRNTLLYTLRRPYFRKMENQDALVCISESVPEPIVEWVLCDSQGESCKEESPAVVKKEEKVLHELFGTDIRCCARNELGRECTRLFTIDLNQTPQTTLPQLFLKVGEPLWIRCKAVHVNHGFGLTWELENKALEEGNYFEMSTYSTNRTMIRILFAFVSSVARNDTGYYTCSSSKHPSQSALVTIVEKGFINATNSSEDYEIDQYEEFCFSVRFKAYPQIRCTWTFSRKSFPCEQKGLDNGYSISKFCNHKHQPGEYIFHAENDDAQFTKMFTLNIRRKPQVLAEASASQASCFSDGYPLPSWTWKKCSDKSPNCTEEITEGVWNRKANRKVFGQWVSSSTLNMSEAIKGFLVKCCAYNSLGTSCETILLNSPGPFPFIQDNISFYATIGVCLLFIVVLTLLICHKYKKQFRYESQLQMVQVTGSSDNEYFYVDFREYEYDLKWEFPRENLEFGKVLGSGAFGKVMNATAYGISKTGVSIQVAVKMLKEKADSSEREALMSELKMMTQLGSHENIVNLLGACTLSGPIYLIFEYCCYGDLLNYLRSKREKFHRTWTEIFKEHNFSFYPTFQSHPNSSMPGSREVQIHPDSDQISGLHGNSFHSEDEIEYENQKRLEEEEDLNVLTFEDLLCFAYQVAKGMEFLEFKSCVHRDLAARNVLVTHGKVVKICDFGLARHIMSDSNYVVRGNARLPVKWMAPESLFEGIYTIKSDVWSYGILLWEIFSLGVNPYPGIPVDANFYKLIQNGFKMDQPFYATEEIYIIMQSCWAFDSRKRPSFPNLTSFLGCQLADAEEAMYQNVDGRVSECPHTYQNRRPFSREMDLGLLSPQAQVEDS", "assay": "Selectivity interaction (KinomeScan (DiscoverX)) EUB0000695a FLT3", "conditions": "at 100 nM"}, "[3]": {"target": "T3, Serine/threonine-protein kinase Nek10 (Homo sapiens) (UniProt Q6ZWH5)", "T3 sequence (whole entry)": "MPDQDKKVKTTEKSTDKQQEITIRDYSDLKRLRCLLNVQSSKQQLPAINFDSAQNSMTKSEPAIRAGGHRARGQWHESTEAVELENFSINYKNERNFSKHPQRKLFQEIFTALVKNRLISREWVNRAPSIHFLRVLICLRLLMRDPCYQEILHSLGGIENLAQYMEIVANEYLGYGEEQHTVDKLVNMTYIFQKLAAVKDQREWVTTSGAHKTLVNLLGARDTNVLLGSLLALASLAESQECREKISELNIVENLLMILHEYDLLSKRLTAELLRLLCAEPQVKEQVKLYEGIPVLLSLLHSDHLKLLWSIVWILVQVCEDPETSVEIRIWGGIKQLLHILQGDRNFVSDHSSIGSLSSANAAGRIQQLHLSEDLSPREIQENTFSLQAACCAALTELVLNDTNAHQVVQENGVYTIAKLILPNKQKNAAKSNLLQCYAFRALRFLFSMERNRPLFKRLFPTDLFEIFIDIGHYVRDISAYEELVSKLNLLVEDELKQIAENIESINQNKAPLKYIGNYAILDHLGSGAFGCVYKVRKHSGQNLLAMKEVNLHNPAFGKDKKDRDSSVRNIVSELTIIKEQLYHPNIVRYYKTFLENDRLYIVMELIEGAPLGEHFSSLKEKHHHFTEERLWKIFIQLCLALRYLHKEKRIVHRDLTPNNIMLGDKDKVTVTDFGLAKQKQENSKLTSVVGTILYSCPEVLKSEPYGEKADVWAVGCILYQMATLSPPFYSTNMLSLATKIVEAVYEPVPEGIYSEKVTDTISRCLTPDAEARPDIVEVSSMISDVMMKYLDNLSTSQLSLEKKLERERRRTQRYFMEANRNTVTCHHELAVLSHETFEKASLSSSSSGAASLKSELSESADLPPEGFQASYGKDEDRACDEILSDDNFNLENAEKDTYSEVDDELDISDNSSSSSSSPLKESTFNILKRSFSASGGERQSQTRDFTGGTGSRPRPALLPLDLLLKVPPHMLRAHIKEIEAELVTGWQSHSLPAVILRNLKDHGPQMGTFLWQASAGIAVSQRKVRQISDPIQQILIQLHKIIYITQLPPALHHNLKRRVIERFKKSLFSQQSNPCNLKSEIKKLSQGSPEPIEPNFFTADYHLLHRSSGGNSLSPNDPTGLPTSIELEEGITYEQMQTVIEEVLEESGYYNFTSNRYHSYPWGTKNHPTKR", "assay": "Selectivity interaction (KinomeScan (DiscoverX)) EUB0000695a NEK10", "conditions": "at 100 nM"}, "[4]": {"target": "Non-receptor tyrosine-protein kinase TYK2 (Homo sapiens, UniProt P29597)", "sequence (P29597 whole entry)": "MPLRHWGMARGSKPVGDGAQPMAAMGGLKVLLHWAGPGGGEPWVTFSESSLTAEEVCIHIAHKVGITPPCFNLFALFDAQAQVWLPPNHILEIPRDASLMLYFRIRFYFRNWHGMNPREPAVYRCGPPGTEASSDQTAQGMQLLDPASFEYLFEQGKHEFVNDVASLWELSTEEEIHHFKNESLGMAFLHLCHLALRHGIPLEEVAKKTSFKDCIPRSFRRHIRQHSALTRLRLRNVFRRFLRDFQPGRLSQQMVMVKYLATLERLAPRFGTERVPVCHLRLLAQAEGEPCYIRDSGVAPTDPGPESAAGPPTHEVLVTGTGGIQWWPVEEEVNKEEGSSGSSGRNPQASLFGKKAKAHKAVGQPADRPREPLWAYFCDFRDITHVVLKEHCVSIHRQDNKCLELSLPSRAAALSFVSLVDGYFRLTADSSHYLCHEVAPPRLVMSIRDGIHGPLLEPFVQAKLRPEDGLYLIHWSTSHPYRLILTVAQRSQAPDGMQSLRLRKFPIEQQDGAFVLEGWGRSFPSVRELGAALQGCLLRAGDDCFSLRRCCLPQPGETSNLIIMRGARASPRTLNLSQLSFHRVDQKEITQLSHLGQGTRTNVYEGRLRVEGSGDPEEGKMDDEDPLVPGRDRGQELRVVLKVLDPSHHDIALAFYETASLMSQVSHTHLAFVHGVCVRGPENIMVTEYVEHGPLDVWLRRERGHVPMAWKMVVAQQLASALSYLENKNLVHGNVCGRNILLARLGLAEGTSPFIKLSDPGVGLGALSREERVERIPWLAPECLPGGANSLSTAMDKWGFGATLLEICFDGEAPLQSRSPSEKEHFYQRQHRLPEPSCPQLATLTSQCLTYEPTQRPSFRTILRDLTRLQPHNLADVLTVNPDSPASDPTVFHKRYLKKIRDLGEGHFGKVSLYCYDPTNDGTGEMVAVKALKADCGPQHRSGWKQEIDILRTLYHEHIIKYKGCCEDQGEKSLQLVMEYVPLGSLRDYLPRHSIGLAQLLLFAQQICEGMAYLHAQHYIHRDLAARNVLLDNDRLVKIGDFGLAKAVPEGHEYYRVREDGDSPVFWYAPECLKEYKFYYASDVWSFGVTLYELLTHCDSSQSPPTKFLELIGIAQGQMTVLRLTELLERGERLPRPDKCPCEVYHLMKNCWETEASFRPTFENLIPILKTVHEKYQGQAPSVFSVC", "assay": "Selectivity interaction (KinomeScan (DiscoverX)) EUB0000595a TYK2", "conditions": "at 10 µM"}, "[5]": {"target": "TRAF2 and NCK-interacting protein kinase (Homo sapiens) (UniProt Q9UKE5)", "sequence (Q9UKE5 whole entry, looked up)": "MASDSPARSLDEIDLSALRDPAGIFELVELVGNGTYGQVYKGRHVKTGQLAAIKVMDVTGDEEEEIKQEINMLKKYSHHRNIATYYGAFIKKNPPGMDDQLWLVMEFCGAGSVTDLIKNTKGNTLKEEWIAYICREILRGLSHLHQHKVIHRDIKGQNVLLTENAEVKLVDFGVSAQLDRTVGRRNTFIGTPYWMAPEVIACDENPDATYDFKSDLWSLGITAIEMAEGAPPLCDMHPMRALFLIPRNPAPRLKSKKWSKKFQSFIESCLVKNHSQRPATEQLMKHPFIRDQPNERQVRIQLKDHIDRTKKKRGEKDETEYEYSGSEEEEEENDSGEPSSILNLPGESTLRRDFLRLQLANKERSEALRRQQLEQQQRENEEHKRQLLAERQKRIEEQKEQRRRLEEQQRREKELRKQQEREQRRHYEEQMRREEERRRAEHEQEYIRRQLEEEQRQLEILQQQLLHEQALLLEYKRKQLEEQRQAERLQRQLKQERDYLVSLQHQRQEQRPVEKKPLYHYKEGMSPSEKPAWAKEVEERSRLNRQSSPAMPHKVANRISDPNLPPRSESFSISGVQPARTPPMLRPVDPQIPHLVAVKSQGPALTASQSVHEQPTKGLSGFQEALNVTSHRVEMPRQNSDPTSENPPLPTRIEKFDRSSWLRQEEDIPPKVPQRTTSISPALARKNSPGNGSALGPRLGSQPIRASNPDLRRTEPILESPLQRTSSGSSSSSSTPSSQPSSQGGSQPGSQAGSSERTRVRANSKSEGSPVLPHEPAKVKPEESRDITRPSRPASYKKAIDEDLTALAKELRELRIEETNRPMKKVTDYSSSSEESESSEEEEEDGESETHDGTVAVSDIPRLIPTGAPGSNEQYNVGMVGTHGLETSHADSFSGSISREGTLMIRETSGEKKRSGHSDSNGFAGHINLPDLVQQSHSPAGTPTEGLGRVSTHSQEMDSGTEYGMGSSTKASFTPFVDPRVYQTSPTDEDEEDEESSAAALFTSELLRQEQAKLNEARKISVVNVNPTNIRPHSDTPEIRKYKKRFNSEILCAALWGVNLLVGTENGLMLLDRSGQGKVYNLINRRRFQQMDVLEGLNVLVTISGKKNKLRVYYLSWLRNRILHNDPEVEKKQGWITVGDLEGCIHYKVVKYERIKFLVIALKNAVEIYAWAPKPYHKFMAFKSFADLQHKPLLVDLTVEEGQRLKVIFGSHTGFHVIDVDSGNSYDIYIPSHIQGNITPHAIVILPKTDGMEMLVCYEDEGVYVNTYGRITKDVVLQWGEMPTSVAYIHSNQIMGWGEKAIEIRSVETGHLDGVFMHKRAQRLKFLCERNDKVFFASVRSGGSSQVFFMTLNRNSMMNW", "assay": "Selectivity interaction (KinomeScan (DiscoverX)) EUB0000655a TNIK", "conditions": "at 10 µM"}, "[6]": {"target": "Dual specificity mitogen-activated protein kinase kinase 1 (Homo sapiens, UniProt Q02750)", "sequence (Q02750 whole entry)": "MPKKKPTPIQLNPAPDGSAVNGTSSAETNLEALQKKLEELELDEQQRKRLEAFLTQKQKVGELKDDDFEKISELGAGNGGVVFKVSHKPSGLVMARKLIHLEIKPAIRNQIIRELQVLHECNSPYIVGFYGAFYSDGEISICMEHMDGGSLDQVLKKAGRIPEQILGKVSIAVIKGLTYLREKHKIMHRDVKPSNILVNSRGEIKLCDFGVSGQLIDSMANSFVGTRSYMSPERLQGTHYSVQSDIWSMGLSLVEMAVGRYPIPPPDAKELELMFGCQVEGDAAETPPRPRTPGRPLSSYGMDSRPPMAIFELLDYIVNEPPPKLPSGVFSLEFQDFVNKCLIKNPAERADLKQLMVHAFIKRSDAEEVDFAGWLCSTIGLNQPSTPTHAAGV", "assay": "Selectivity interaction (ActivX KiNativ screen (ex vivo kinase selectivity in human PBMCs)) EUB0001619a MAP2K1", "assay_type": "cell-based", "conditions": "PBMC, at 1 µM"}, "[7]": {"target": "Calcium/calmodulin-dependent protein kinase type 1G (Homo sapiens) (UniProt Q96NX5)", "sequence (Q96NX5 whole entry)": "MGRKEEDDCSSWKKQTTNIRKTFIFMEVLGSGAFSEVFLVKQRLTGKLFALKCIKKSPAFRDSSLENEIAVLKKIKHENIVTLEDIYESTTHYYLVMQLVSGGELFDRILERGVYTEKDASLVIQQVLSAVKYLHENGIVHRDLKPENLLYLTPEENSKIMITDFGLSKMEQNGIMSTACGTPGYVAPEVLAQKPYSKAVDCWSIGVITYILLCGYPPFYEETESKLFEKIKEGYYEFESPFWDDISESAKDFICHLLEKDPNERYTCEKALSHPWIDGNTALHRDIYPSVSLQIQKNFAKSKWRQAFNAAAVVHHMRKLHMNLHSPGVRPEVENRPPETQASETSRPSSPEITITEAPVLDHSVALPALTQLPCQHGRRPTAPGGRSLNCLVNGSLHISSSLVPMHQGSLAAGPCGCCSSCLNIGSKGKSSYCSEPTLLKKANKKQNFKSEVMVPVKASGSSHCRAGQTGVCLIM", "assay": "Selectivity interaction (Kinase panel (DSF assay)) EUB0001559a CAMK1G"}}}
{"smiles": "CC[C@@H]1[C@H](F)C(=O)N[C@@H]1COc1nccc2cc(C(N)=O)c(OC)cc12", "note": "[ZIMLOVISERTIB]", "values": [{"measurement": "% of inhibition", "setting": "[1]; at 0.01 µM", "value": -0.7, "unit": "%"}, {"measurement": "% of inhibition", "setting": "[1]; at 0.04 µM", "value": -2.4, "unit": "%"}, {"measurement": "% of inhibition", "setting": "[1]; at 0.2 µM", "value": 2.8, "unit": "%"}, {"measurement": "% of inhibition", "setting": "[1]; at 1 µM", "value": 26.7, "unit": "%"}, {"measurement": "% of inhibition", "setting": "[1]; at 5 µM", "value": 59.9, "unit": "%"}]}
{"smiles": "Cc1cc(F)c(C(=O)Nc2cccc(-c3nncn3C(C)C)n2)cc1-n1cnc(C2CC2)c1", "values": [{"measurement": "% of control", "setting": "[2]", "value": 100, "unit": "%"}, {"measurement": "% of control", "setting": "[3]", "value": 84, "unit": "%"}]}
{"smiles": "COCC(=O)NC/C=C/c1ccc2ncnc(Nc3ccc(Oc4ccc(C)nc4)c(C)c3)c2c1", "note": "[CP-724714]", "values": [{"measurement": "% of control", "setting": "[4]", "value": 24, "unit": "%"}]}
{"smiles": "CN(C)CCOc1ccc(-c2nc(-c3ccncc3)c(-c3ccc4c(c3)CC/C4=N\\O)[nH]2)cc1", "values": [{"measurement": "% of control", "setting": "[5]", "value": 12, "unit": "%"}]}
{"smiles": "N#Cc1cccc(-c2c[nH]c3ncnc(N4CCOCC4)c23)c1", "values": [{"measurement": "% of inhibition", "setting": "[6]", "value": 14, "unit": "%"}]}
{"smiles": "CN(C(=O)c1cnn2cccnc12)c1cc2c(cc1N1CCOCC1)C(=O)N(C[C@@H](F)C(C)(C)O)C2", "values": [{"measurement": "dTM", "setting": "[7]", "value": -0.6, "unit": "K"}]}
